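Tested at 5 concentrations; 48 h exposure; 96-well plates; endpoints linearly interpolated, else capped at highest concentration. Definition used: TGI = concentration required for complete inhibition of growth.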
Assays:
Assay in all cases: inhibition of tumour cell growth, NCI panel, 48 h
786-0 renal = test system: 786-0 renal
A498 renal = test system: A498 renal
A549 NSCLC = test system: A549 NSCLC
DU-145 prostate = test system: DU-145 prostate
HCT-116 colon = test system: HCT-116 colon
HCT-15 colon = test system: HCT-15 colon
HL-60(TB) leukemia = test system: HL-60(TB) leukemia
MDA-MB-435 = test system: MDA-MB-435
OVCAR-5 ovarian = test system: OVCAR-5 ovarian
RPMI-8226 leukemia = test system: RPMI-8226 leukemia
SK-MEL-28 melanoma = test system: SK-MEL-28 melanoma
SK-MEL-5 melanoma = test system: SK-MEL-5 melanoma
SNB-75 CNS = test system: SNB-75 CNS
SW-620 colon = test system: SW-620 colon
TK-10 renal = test system: TK-10 renal
U251 CNS = test system: U251 CNS
UO-31 renal = test system: UO-31 renal
HCC-2998 colon = test system: HCC-2998 colon
MCF7 breast = test system: MCF7 breast

| Compound | TGI (786-0 renal) [µM] | TGI (A498 renal) [µM] | TGI (A549 NSCLC) [µM] | TGI (DU-145 prostate) [µM] | TGI (HCT-116 colon) [µM] | TGI (HCT-15 colon) [µM] | TGI (HL-60(TB) leukemia) [µM] | TGI (MDA-MB-435) [µM] | TGI (OVCAR-5 ovarian) [µM] | TGI (RPMI-8226 leukemia) [µM] | TGI (SK-MEL-28 melanoma) [µM] | TGI (SK-MEL-5 melanoma) [µM] | TGI (SNB-75 CNS) [µM] | TGI (SW-620 colon) [µM] | TGI (TK-10 renal) [µM] | TGI (U251 CNS) [µM] | TGI (UO-31 renal) [µM] | TGI (HCC-2998 colon) [µM] | TGI (MCF7 breast) [µM] |
| --- | --- | --- | --- | --- | --- | --- | --- | --- | --- | --- | --- | --- | --- | --- | --- | --- | --- | --- | --- |
| CC1=NNC(=O)C1C1CC(c2c[nH]c3ccccc23)=NNC1=S (stereo not drawn) | > 100 | > 100 | > 100 | > 100 | > 100 | > 100 | > 100 | > 100 | > 100 | > 100 | > 100 | > 100 | > 100 | > 100 | > 100 | > 100 | > 100 | – | – |
| O=C(CC(=O)Nc1cccc(Cl)c1)NNCC(=O)Nc1nnc(-c2ccccc2)s1 | 84.3 | 86.8 | > 100 | – | > 100 | > 100 | > 100 | – | > 100 | 86.6 | > 100 | > 100 | 33.8 | > 100 | > 100 | > 100 | > 100 | > 100 | – |
| O=[N+]([O-])c1ccc2[nH]nc(OCc3ccccn3)c2c1 | > 100 | > 100 | > 100 | > 100 | > 100 | > 100 | > 100 | > 100 | > 100 | > 100 | > 100 | > 100 | > 100 | > 100 | > 100 | > 100 | > 100 | > 100 | – |
| O=C1CCCC2C(O)CCC[C@H]12 (stereo partly drawn) | > 100 | – | > 100 | > 100 | > 100 | > 100 | > 100 | – | > 100 | – | > 100 | > 100 | > 100 | > 100 | > 100 | > 100 | > 100 | > 100 | > 100 |
| Nc1ccc2nc(NCc3ccc(F)cc3)cnc2c1 | > 100 | – | > 100 | – | > 100 | > 100 | > 100 | – | > 100 | > 100 | > 100 | > 100 | > 100 | > 100 | > 100 | > 100 | > 100 | > 100 | – |
| CC(C)CC[C@H](O)[C@@H](C)[C@H]1[C@@H](OC2OC(C)C(O)C(O)C2O)C[C@H]2[C@@H]3CC=C4C[C@@H](O)CC[C@]4(C)[C@H]3[C@@H](O)C[C@]12C (stereo partly drawn) | > 100 | > 34.9 | > 100 | > 100 | > 100 | > 100 | > 100 | > 100 | > 100 | 0.229 | 6.47 | > 58 | 59.1 | > 19.9 | > 100 | > 100 | 21.7 | > 100 | – |
| N#CCCN(c1ccc(/C=C2\N=C(Cc3ccccc3)OC2=O)cc1)S(=O)(=O)c1ccccc1 | > 100 | > 100 | > 100 | – | > 100 | > 100 | > 100 | – | > 100 | > 100 | > 100 | > 100 | > 100 | > 100 | > 100 | > 100 | > 100 | > 100 | – |
| COC(=O)C(C)(C)OCc1ccc(C2NC(=O)N(c3cccc(Cl)c3)C(=O)N2c2cccc(Cl)c2)cc1 (stereo not drawn) | > 100 | – | > 100 | > 100 | > 100 | > 100 | – | > 100 | > 100 | > 100 | > 100 | 52.8 | 6.95 | > 100 | – | > 100 | > 100 | > 100 | > 100 |
| N#Cc1c2c(c(Nc3cccc(C(F)(F)F)c3)n3c1nc1ccccc13)CCC2 | > 100 | > 100 | – | > 100 | > 100 | > 100 | – | > 100 | > 100 | > 100 | > 100 | > 100 | > 100 | > 100 | > 100 | > 100 | – | – | – |
| N#CC1Cc2cc3c(cc21)OCO3 (stereo not drawn) | > 100 | > 100 | > 100 | > 100 | > 100 | > 100 | – | > 100 | > 100 | – | > 100 | > 100 | > 100 | > 100 | > 100 | > 100 | > 100 | > 100 | > 100 |
| N#CC(c1nc2ccccc2s1)c1ncnc(Cl)c1[N+](=O)[O-] (stereo not drawn) | 42.7 | > 100 | > 100 | > 100 | 26.4 | 35.8 | – | 83.2 | 91.7 | > 100 | 38.7 | 30 | > 100 | 35.5 | > 100 | 95.7 | 91.3 | – | – |
| O=[N+]([O-])c1ccc(-c2nc3ccc([N+](=O)[O-])cc3[nH]2)cc1 | > 100 | – | 62.7 | > 100 | 38.3 | > 100 | – | 89.5 | – | > 100 | > 100 | 44.9 | > 100 | > 100 | > 100 | 70.1 | 61.4 | > 100 | > 100 |
| NC(=O)c1cccc(C2OC(COP(=O)(O)O)C(O)C2O)c1 (stereo not drawn) | > 50 | > 50 | > 50 | – | > 50 | > 50 | > 50 | – | > 50 | > 50 | > 50 | > 50 | > 50 | > 50 | > 50 | > 50 | > 50 | > 50 | – |
| S=c1nc(Cc2ccc(Cl)cc2)[nH][nH]1 | > 100 | > 100 | > 100 | > 100 | > 100 | > 100 | – | > 100 | > 100 | – | > 100 | > 100 | > 100 | > 100 | > 100 | > 100 | > 100 | > 100 | > 100 |
| CC(=O)O[C@]12CCCCC1C1(O)C(O)CCCCC12 (stereo partly drawn) | > 100 | – | > 100 | – | > 100 | > 100 | > 100 | – | – | > 100 | > 100 | > 100 | > 100 | > 100 | > 100 | > 100 | > 100 | – | – |
| O=c1[nH]c2ccc(Cl)cc2c2oc(-c3ccccc3)nc12 | 30 | 43.4 | 54.3 | – | 32.8 | > 100 | – | > 100 | > 100 | 64.7 | – | 85.8 | – | > 100 | 80.7 | 36.8 | 44.2 | 79 | > 100 |
| Nc1ccc(-c2cssc2=S)cc1 | > 100 | – | > 100 | – | > 100 | > 100 | 62.5 | > 100 | > 100 | 5.65 | > 100 | > 100 | – | > 100 | > 100 | > 100 | > 100 | > 100 | > 100 |
| COc1ccccc1/C=C(\C#N)C(=O)c1ccccc1 | > 100 | > 100 | > 100 | – | > 100 | > 100 | > 100 | – | > 100 | > 100 | > 100 | > 100 | – | > 100 | – | > 100 | > 100 | > 100 | – |
| O=C(C=P(c1ccccc1)(c1ccccc1)c1ccccc1)c1cccc(-c2cccc([N+](=O)[O-])c2)c1 | > 100 | 7.87 | > 100 | > 100 | > 100 | 21.1 | 4.82 | – | > 100 | 4.53 | 10.9 | 5.93 | 7.62 | 26.8 | > 100 | > 100 | 20.3 | > 100 | > 100 |
| CC(C)c1nc2cc(C(F)(F)F)ccc2[nH]c1=O | > 100 | > 100 | > 100 | – | > 100 | > 100 | > 100 | > 100 | > 100 | > 100 | > 100 | > 100 | > 100 | > 100 | > 100 | > 100 | > 100 | > 100 | > 100 |
| C#CCNC(=O)NCCCC(NC(C)=O)C(=O)NCc1ccccc1 (stereo not drawn) | > 100 | > 100 | > 100 | – | > 100 | > 100 | > 100 | – | > 100 | > 100 | > 100 | > 100 | > 100 | > 100 | > 100 | > 100 | > 100 | > 100 | – |
| CCOc1ccc(NC(=O)C(=O)NO)cc1 | > 100 | > 100 | > 100 | – | > 100 | > 100 | > 100 | – | > 100 | > 100 | > 100 | > 100 | > 100 | > 100 | > 100 | > 100 | > 100 | > 100 | – |
| CCOCN1COCN=C1NC#N | > 100 | > 100 | > 100 | – | > 100 | > 100 | > 100 | – | > 100 | – | > 100 | > 100 | > 100 | 35.3 | > 100 | > 100 | > 100 | > 100 | – |
| CCOC(=O)[C@]12C(=C(c3ccccc3)O[C@H]3C=CCC[C@H]31)C(=O)C(=O)N2c1ccccc1 | > 100 | > 100 | > 100 | > 100 | > 100 | > 100 | – | – | > 100 | 51.6 | – | > 100 | – | – | > 100 | 38.6 | > 100 | > 100 | > 100 |
| CCCCCCCc1cc(OC(=O)c2c(C)cc(OC)cc2O)cc(O)c1C(=O)O | 36.8 | 38 | 83.9 | – | – | – | 68.3 | – | 32.1 | 74 | 38.7 | 40.7 | 36.1 | 64.5 | 90.2 | 32.1 | 30.6 | 35.6 | – |
| COc1cc(/C=N/n2c(Cc3ccc(Cl)cc3)n[nH]c2=O)cc(OC)c1OC | > 100 | > 100 | > 100 | – | > 100 | > 100 | – | > 100 | > 100 | – | > 100 | – | > 100 | > 100 | – | > 100 | > 100 | > 100 | > 100 |
| Cc1ccc(N=NC2S/C(=C(\C#N)c3nc4ccccc4[nH]3)N(c3ccccc3)C2=O)cc1 (stereo not drawn) | 71.9 | > 100 | > 100 | – | > 100 | > 100 | > 100 | – | > 100 | – | > 100 | > 100 | 82.5 | > 100 | > 100 | > 100 | > 100 | – | – |
| O=C1[C@@H]2C(c3ccc(Cl)cc3Cl)=NO[C@@H]2C(=O)N1c1ccc(Cc2ccc(N3C(=O)[C@H]4C(c5ccc(Cl)cc5Cl)=NO[C@H]4C3=O)cc2)cc1 | > 100 | > 100 | > 100 | – | – | > 100 | 48.8 | – | > 100 | > 100 | > 100 | > 100 | > 100 | > 100 | > 100 | – | > 100 | > 100 | – |
| COc1ccc(/C(Cl)=C(/c2ccc(O)cc2)c2ccc(OCCN(C)C)cc2)cc1 | 18.8 | – | 26.7 | – | – | 23.3 | 26 | – | 26.1 | 21.6 | 13.4 | 16.9 | 23.3 | 24.2 | 34.1 | 23.3 | 19.7 | 30.5 | – |

From PubChem BioAssay (NCI)
